# Experimental data as given in patent US11541028B2, “Peptide pharmaceuticals for treatment of NASH and other disorders” (Mederis Diabetes LLC, priority 2018, dated 2023).
# What was measured:
# human glucagon receptor = target: T1, human glucagon receptor (Homo sapiens, UniProt P47871); assay: DiscoveRx LeadHunter cellular assay, cAMP stimulation, glucagon receptor in CHO cells; format: cell-based
# T1 construct: host or cells: CHO cells
# Experimental: (§1) A further series of cellular assays was carried out with standard cellular assays (DiscoveRx, LeadHunter assays) using readout of cAMP stimulation or arrestin activation. Compounds were weighed precisely in an amount of about 1 mg and shipped to DiscoveRx for dilution and assay.
# human GLP-1 receptor = target: T2, human GLP-1 receptor (Homo sapiens, UniProt P43220); assay: DiscoveRx LeadHunter cellular assay, cAMP stimulation, GLP-1 receptor in CHO cells; format: cell-based; details: human GLP-1 receptor in CHO cells (DiscoveRx); read-out: EC50 cAMP GLP-1 R
# T2 construct: host or cells: CHO cells
# Experimental: as §1
# db/db mice = assay: Glucose-lowering activity in db/db mice; format: in vivo; details: for food consumption versus liraglutide: day 2
# Experimental: The 60 female db/db B6BKS (D) Leprdb/J (strain 000697) mice for this study were about 8-9 weeks old at arrival (Jackson Laboratory, Bar Harbor, Me.). […] One group of 8 female mice served as the vehicle control and received the vehicle, 0.2% BSA in saline, pH 7.4. One additional group of 8 female mice received the positive-control compound, liraglutide, at a dose level of 50 nmoles/kg. The test compounds, vehicle and positive-control compound were subcutaneously injected at a dose volume of 6 mL/kg on day 1 at about 0, 7 and 24 hours.
# Clinical observations were conducted at receipt, prior to randomization, and daily from days 1 to 5. Body weights were measured and recorded at receipt, prior to randomization, and daily from days 1 to 5. Food consumption was measured and recorded daily from days 1 to 5. Blood samples for glucose analysis were collected pre-study (day −3) and at 0, 1, 2, 4, 8, 10, 24, 48, 72 and 96 hours following the first dose on day 1. At study termination all animals were euthanized, and the carcasses were discarded without further evaluation.
# DIO-NASH mice = assay: Biopsy-proven DIO-NASH mouse model; format: in vivo; details: for hepatocyte ballooning score (0-2), pre-study to post-study biopsy: animals that initially exhibited ballooning
# Experimental: All mice entering the study were stratified based on liver pre-biopsy at week −3. Only mice with a fibrosis score ≥1 and a steatosis score ≥2 were included in the study. The stratified mice were randomized into treatment groups based on liver collagen type 1 alpha 1 (collal) quantification at week −3.
# Body weight was measured daily for the entire study period. Food intake was measured daily for the first 14 days, and then weekly until study end. EchoMRI whole-body scanning was performed in week 11. At study end were measured plasma levels of alanine transaminase (ALT), aspartate transaminase (AST), γ-glutamyltransferase (GGT), triglycerides (TG) and total cholesterol (TC), liver levels of TG, TC, col1α1 and galectin-3, the expression levels of a wide variety of mRNAs in the liver, and the liver weight, and were performed liver biopsy/necropsy to assess steatosis, inflammation, ballooning and fibrosis of the liver.
# For blood and plasma assays, blood samples were collected in heparinized tubes and plasma was separated and stored at −80° C. until analysis. ALT, AST, GGT, TG and TC levels were measured using commercial kits (Roche Diagnostics, Germany) and the Cobas™ C-501 autoanalyzer according to the manufacturer's instructions.
# For liver tissue assays, the triglycerides and cholesterol content in the liver was measured using the Triglyceride and Cholesterol reagents (Cat. No. 22-045-795 and Cat. No. 22-045-780, respectively, Roche Diagnostics, Germany) and the Cobas™ C-501 autoanalyzer. Homogenized liver tissue was heated to 80-100° C. twice and centrifuged in a microcentrifuge, and the triglycerides and cholesterol content in the resulting supernatant was measured.
# The body composition of the mice was assessed by an EchoMRI 3-1 body composition analyzer (EchoMRI, U.S.). Unanesthetised mice were placed in a plastic tube inside the MRI scanner for about 80 seconds. The body composition was expressed as fat tissue mass, fat-free tissue mass (lean tissue mass) and water.
# For liver biopsy, mice were anesthetized by inhalation of isoflurane (2-3%). A small abdominal incision was made in the midline, and the left lateral lobe of the liver was exposed. A cone-shaped wedge of liver tissue (about 50 mg) was excised from the distal portion of the lobe and fixated in 10% neutral-buffered formalin (4% formaldehyde) for histology. The cut surface of the liver was instantly electro-coagulated using bipolar coagulation (ERBE VIO 100 electrosurgical unit). After pre-biopsy, the liver was returned to the abdominal cavity, the abdominal wall was sutured, and the skin was closed with staples. For post-operative recovery, the mice were administered carprofen (5 mg/kg) subcutaneously on the day of operation and on days 1 and 2 post-operation.
# For histological staining, in brief, slides with paraffin-embedded sections were de-paraffinated in xylene and then rehydrated in a series of graded ethanol. For hematoxylin and eosin (H&E) staining, the slides were incubated in Mayer's Hematoxylin (Dako), washed in tap water, stained in Eosin Y solution (Sigma-Aldrich), hydrated, mounted with Pertex and then allowed to dry before scanning. For picrosirius red (PSR) staining, the slides were incubated in Weigert's iron hematoxylin (Sigma-Aldrich), washed in tap water, stained in picrosirius red (Sigma-Aldrich) and then washed twice in acidified water. Excess water was removed by shaking the slides, and the slides were dehydrated in three changes of 99% ethanol, cleared in xylene, mounted with Pertex and then allowed to dry before scanning.
# For collagen type 1 alpha 1 (collal) and galectin-3 (GAL3) immunohistochemical (IHC) staining, after antigen retrieval and blocking of endogenous peroxidase activity, slides were incubated with the primary antibody (Cat. No. 1310-01 from Southern Biotech for col1α1, or Cat. No. 125402 from Biolegend for galectin-3). […]
# [1] = 12 weeks QD (SP-1373 5/10 nmole/kg SC; semaglutide 10 nmole/kg SC; elafibranor 78 mole/kg PO)
# [2] = 12 weeks QD (SP-1373 5/10 nmole/kg SC; semaglutide 10 nmole/kg SC; elafibranor PO)
# T1 sequence (P47871 26-477): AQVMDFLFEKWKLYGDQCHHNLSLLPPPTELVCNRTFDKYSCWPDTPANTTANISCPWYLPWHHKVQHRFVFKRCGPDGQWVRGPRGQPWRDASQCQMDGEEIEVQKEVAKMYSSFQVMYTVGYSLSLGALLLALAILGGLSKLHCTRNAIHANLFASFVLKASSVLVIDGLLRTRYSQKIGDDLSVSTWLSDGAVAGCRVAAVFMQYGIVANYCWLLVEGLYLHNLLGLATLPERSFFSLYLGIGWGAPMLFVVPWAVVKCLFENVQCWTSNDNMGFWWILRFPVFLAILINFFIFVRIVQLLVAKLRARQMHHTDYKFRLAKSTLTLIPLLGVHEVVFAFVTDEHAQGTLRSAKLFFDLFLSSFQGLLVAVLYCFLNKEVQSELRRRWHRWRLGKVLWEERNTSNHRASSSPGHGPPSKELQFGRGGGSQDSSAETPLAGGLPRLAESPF
# T2 sequence (P43220 24-463): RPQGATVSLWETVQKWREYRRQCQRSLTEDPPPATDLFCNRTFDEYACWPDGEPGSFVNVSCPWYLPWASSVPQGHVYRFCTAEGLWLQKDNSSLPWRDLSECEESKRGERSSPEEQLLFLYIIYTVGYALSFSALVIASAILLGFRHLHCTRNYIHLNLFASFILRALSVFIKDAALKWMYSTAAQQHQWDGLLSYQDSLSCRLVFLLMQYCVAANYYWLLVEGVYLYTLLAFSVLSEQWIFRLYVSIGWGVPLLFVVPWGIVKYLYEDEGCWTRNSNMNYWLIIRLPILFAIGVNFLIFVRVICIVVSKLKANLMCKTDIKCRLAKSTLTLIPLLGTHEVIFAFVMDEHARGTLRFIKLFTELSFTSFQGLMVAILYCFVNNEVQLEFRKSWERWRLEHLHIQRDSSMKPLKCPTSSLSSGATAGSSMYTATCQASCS
compound,measurement,setting,value
CCCCCCCCCCCCCCCCCCO[C@@H]1O[C@H](CO[C@H]2O[C@H](C(=O)NCCCC[C@H](NC(=O)[C@@H](NC(=O)[C@H](Cc3ccccc3)NC(=O)[C@H](CCC(=O)O)NC(=O)[C@@H]3CCCCNC(=O)CC[C@H](NC(=O)[C@H](CC(=O)O)NC(=O)[C@H](CC(C)C)NC(=O)[C@H](Cc4ccc(O)cc4)NC(=O)[C@H](CCCCN)NC(=O)[C@H](CO)NC(=O)[C@H](Cc4ccc(O)cc4)NC(=O)[C@H](CC(=O)O)NC(=O)[C@H](CO)NC(=O)[C@@H](NC(=O)[C@H](Cc4ccccc4)NC(=O)[C@@H](NC(=O)CNC(=O)[C@H](CCC(N)=O)NC(=O)C(C)(C)NC(=O)[C@@H](N)Cc4c[nH]cn4)[C@@H](C)O)[C@@H](C)O)C(=O)N[C@@H](CCC(N)=O)C(=O)N[C@@H](C)C(=O)N[C@@H](C)C(=O)N3)[C@@H](C)CC)C(=O)N[C@@H](Cc3c[nH]c4ccccc34)C(=O)N[C@@H](CC(C)C)C(=O)N[C@@H](CC(C)C)C(=O)N[C@@H](CCC(N)=O)C(=O)N[C@H](C(N)=O)[C@@H](C)O)[C@H](O)[C@H](O)[C@H]2O)[C@@H](O)[C@H](O)[C@H]1O [EU-A1026],EC50,human glucagon receptor,0.486 nM
same,EC50,human GLP-1 receptor,0.034 nM
same,body weight changes versus vehicle,"db/db mice; db/db mice, high-dose (300 nmoles/kg) sc at 0, 7 and 24 hours, days 2 and 3",Significant body weight changes versus vehicle
same,food consumption versus liraglutide,"db/db mice; db/db mice, high-dose (300 nmoles/kg)",significantly different from liraglutide
same,body weight changes versus vehicle,"db/db mice; db/db mice, low-dose (100 nmoles/kg) sc at 0, 7 and 24 hours, days 3 and 4",Significant body weight changes versus vehicle
same,food consumption versus liraglutide,"db/db mice; db/db mice, low-dose (100 nmoles/kg)",significantly different from liraglutide
same,db/db Mice-Mean Blood Glucose (mg/dL) 0 hr,db/db mice; dose 300 nmole/kg sc,531 mg/dL
same,db/db Mice-Mean Blood Glucose (mg/dL) 10 hr,db/db mice; dose 300 nmole/kg sc,399 mg/dL
same,db/db Mice-Mean Blood Glucose (mg/dL) 24 hr,db/db mice; dose 300 nmole/kg sc,438 mg/dL
same,db/db Mice-Mean Blood Glucose (mg/dL) 48 hr,db/db mice; dose 300 nmole/kg sc,505 mg/dL
CCCCCCCCCCCO[C@@H]1O[C@H](C(=O)NCCCC[C@H](NC(=O)[C@@H](NC(=O)[C@H](Cc2ccccc2)NC(=O)[C@H](CCC(=O)O)NC(=O)[C@@H]2CCCCNC(=O)CC[C@H](NC(=O)[C@H](CC(=O)O)NC(=O)[C@H](CC(C)C)NC(=O)[C@H](Cc3ccc(O)cc3)NC(=O)[C@H](CCCCN)NC(=O)[C@H](CO)NC(=O)[C@H](Cc3ccc(O)cc3)NC(=O)[C@H](CC(=O)O)NC(=O)[C@H](CO)NC(=O)[C@@H](NC(=O)[C@H](Cc3ccccc3)NC(=O)[C@@H](NC(=O)CNC(=O)[C@H](CCC(N)=O)NC(=O)C(C)(C)NC(=O)[C@@H](N)Cc3c[nH]cn3)[C@@H](C)O)[C@@H](C)O)C(=O)N[C@@H](CCC(N)=O)C(=O)N[C@@H](C)C(=O)N[C@@H](C)C(=O)N2)[C@@H](C)CC)C(=O)N[C@@H](Cc2c[nH]c3ccccc23)C(=O)N[C@@H](CC(C)C)C(=O)N[C@@H](CC(C)C)C(=O)N[C@@H](CCC(N)=O)C(=O)N[C@H](C(N)=O)[C@@H](C)O)[C@@H](O)[C@H](O)[C@H]1O [EU-A1168],time for which elevated blood glucose level was reduced to the normal range,"db/db mice; db/db mice, 250 nmol/kg subcutaneously at t=0 and 7 hr (FIG. 9)",around 72 hr
same,db/db Mice-Mean Blood Glucose (mg/dL) 0 hr,db/db mice; dose 250 nmole/kg sc,380 mg/dL
same,db/db Mice-Mean Blood Glucose (mg/dL) 10 hr,db/db mice; dose 250 nmole/kg sc,133 mg/dL
same,db/db Mice-Mean Blood Glucose (mg/dL) 24 hr,db/db mice; dose 250 nmole/kg sc,169 mg/dL
same,db/db Mice-Mean Blood Glucose (mg/dL) 48 hr,db/db mice; dose 250 nmole/kg sc,164 mg/dL
CSc1ccc(C(=O)/C=C/c2cc(C)c(OC(C)(C)C(=O)O)c(C)c2)cc1 [elafibranor],"liver fibrosis score (0-4), picrosirius red",DIO-NASH mice; 12 weeks QD (SP-1373 5/10 nmole/kg SC; elafibranor PO),reduced liver fibrosis in the majority of animals
same,liver triglycerides (TG) level,DIO-NASH mice; [1],little or no effect
same,liver weight,DIO-NASH mice; [1],increased liver weight
same,total liver collagen type 1 alpha 1 staining (measure of liver fibrosis),DIO-NASH mice; [1],modest effect
same,total liver galectin-3 staining (biomarker for liver inflammation and fibrosis),DIO-NASH mice; [1],essentially no effect
same,body weight,DIO-NASH mice; [2],less body weight decrease
same,liver total cholesterol (TC) level,DIO-NASH mice; [2],little or no effect
same,"hepatocyte ballooning score (0-2), pre-study to post-study biopsy",DIO-NASH mice; [2],showed no ballooning
semaglutide,body weight,DIO-NASH mice; [2],less body weight decrease
same,"hepatocyte ballooning score (0-2), pre-study to post-study biopsy",DIO-NASH mice; [2],showed no ballooning
same,"liver steatosis, histology with hematoxylin and eosin stain",DIO-NASH mice; semaglutide 10 nmole/kg SC QD 12 weeks,moderate decrease in hepatosteatosis
